Assay results as given in patent US20230391739A1, “ARYL DERIVATIVES FOR TREATING TRPM3 MEDIATED DISORDERS” (Katholieke Universiteit Leuven, priority 2020, published 2023).

target: T1, mouse TRPM3α2 (mTRPM3) ion channel (Mus musculus, UniProt J9SQF3); assay: TRPM3 ion channel driven Ca2+ uptake, Fluo-4 AM assay, PS-stimulated (mTRPM3); assay type: cell-based; conditions: TRPM3 overexpressing flip-in HEK293 cells stimulated with Pregnenolone sulfate (PS) 50 μM, activity ranges A, B, C
T1 construct: expressed in transfected cells; host or cells: flip-in HEK293
Experimental: Monitoring the TRPM3 Ion Channel Driven Ca^2+ Uptake.
In order to monitor the inhibition of the mouse TRPM3α2 (mTRPM3) ion channel by the compounds of the invention, a cellular system making use of an mTRPM3alpha2 or hTRPM3 overexpressing cell line (flip-in HEK293) was used. The TRPM3 channel was stimulated/opened with Pregnenolone sulfate (PS) (50 μM) which results in Ca^2+ influx.
For mTRPM3, the intracellular Ca^2+ was measured with a Calcium responsive dye, Fluor-4 AM ester (Invitrogen). Cells were cultured until a confluence of 80-90%, washed with Versene (Invitrogen) and detached from the surface by a short incubation with 0.05% Trypsin (Invitrogen). The trypsination process was stopped by the addition of complete cell culture medium (DMEM, glutamax, 10% FCS, NEAA, Pen-Strep). Cells were collected and resuspended in Krebs buffer without Calcium at RT.
Prior the cell seeding (±2000 cells/well into a black, 384 well plate (Greiner)) the diluted compound was added in the assay plate, together with the PS dissolved in Krebs buffer containing Calcium. […] Directly after cell addition the plates were read on an Envision fluorescence reader (Perkin Elmer) by an Excitation of 485 nm and emission at 535 nm.
Channel inhibition was calculated compared to a non-PS stimulated control versus a condition stimulated with PS (50 μM) with vehicle. The ability of the compounds of the invention to inhibit this activity was determined as: Percentage inhibition=[1−((RFU determined for sample with test compound present−RFU determined for sample with positive control inhibitor) divided by (RFU determined in the presence of vehicle−RFU determined for sample with positive control inhibitor))]*100.
The activities of the Example compounds tested are depicted in the table below.

T1 sequence (J9SQF3 1-1709 isoform J9SQF3-12): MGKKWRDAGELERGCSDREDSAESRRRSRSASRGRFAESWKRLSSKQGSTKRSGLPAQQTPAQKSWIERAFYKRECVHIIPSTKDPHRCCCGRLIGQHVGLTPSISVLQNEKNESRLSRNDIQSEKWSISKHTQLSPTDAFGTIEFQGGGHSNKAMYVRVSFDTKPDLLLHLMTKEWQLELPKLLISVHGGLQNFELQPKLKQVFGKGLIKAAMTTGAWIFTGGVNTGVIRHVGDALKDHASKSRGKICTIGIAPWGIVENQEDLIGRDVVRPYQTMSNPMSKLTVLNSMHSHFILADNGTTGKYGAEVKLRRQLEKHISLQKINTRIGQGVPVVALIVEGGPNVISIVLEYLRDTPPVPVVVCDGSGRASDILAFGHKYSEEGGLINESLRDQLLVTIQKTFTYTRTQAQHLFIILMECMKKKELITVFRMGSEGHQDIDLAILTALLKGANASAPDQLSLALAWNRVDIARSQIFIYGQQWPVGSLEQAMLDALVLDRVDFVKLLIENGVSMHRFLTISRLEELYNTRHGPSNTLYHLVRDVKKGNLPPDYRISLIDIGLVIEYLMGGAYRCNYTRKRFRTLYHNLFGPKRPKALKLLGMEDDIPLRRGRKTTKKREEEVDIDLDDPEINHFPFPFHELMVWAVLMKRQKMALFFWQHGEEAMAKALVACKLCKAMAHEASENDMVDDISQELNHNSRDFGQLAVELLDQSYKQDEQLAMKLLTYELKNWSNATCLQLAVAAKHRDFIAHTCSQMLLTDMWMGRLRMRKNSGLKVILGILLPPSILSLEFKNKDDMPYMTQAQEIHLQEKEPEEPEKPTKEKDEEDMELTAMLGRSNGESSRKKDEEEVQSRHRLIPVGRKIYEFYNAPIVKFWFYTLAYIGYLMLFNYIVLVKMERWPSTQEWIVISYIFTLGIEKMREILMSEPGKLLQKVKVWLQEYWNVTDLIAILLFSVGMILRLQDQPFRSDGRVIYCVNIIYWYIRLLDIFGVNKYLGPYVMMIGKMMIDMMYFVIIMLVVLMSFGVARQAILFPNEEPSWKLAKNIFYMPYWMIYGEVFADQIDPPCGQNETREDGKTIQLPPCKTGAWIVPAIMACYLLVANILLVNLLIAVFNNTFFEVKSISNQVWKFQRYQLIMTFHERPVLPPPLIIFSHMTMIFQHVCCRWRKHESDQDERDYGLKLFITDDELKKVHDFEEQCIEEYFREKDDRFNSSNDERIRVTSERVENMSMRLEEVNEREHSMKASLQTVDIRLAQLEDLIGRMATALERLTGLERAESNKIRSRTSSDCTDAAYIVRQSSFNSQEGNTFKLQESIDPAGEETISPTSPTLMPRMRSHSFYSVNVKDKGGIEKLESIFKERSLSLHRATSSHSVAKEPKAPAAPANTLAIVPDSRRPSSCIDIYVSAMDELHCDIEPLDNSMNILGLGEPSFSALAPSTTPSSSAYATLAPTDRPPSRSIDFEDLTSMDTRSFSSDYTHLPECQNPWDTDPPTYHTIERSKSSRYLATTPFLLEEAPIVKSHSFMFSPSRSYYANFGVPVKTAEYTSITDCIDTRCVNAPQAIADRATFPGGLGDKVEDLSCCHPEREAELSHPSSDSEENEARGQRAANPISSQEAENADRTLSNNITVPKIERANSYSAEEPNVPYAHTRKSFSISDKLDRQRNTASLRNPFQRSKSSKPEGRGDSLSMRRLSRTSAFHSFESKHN

Row | Compound | IC50 [nM]
1 | Cc1ccc(COc2ccc3oc(C)c(C(=O)N[C@@H](CO)C(N)=O)c3c2)c(F)c1 [Cpd 342, (S)—N-(1-amino-3-hydroxy-1-oxopropan-2-yl)-5-((2-fluoro-4-methylbenzyl)oxy)-2-methylbenzofuran-3-carboxamide] | < 1000
2 | Cc1oc2ccc(OCc3ccccc3F)cc2c1C(=O)NC1(CO)CCOC1 (single isomer, unassigned) [Cpd 327-En 2, 5-((2-fluorobenzyl)oxy)-N-(3-(hydroxymethyl)tetrahydrofuran-3-yl)-2-methylbenzofuran-3-carboxamide] | < 1000
3 | Cc1oc2ccc(OCc3cccc(F)c3F)cc2c1C(=O)NC1CCNC1=O (stereo not shown) [Cpd 171, 5-((2,3-difluorobenzyl)oxy)-2-methyl-N-(2-oxopyrrolidin-3-yl)benzofuran-3-carboxamide] | < 1000
4 | Cc1oc2ccc(OCc3ccccc3)cc2c1C(=O)NC1(C(=O)O)CCOCC1 [Cpd 193, 4-(5-(benzyloxy)-2-methylbenzofuran-3-carboxamido)tetrahydro-2H-pyran-4-carboxylic acid] | 1000 to 20000
5 | Cc1oc2ccc(OCc3ccccc3F)cc2c1C(=O)NC1COCC1(F)F (single isomer, unassigned) [Cpd 331-En 1] | > 20000
6 | CNC(=O)c1c(C)oc2ccc(OCc3c(F)cccc3Cl)cc12 [Cpd 045, 5-((2-chloro-6-fluorobenzyl)oxy)-N,2-dimethylbenzofuran-3-carboxamide] | < 1000
7 | Cc1oc2ccc(OCc3ccccc3C#N)cc2c1C(=O)O [Cpd 010, 5-((2-cyanobenzyl)oxy)-2-methylbenzofuran-3-carboxylic acid] | 1000 to 20000
8 | Cc1noc(C)c1CCNC(=O)c1c(C)oc2ccc(OCc3ccccc3)cc12 [Cpd 178, 5-(benzyloxy)-N-(2-(3,5-dimethylisoxazol-4-yl)ethyl)-2-methylbenzofuran-3-carboxamide] | 1000 to 20000
9 | Cc1oc2ccc(OC(CO)c3ccccc3)cc2c1C(=O)NC1(CO)CCOCC1 (single isomer, unassigned) [Cpd 317-En 1, 5-(2-hydroxy-1-phenylethoxy)-N-(4-(hydroxymethyl)tetrahydro-2H-pyran-4-yl)-2-methylbenzofuran-3-carboxamide] | < 1000
10 | Cc1oc2ccc(OC(C)(C)c3ccccc3)cc2c1C(=O)NC1(CO)CCOCC1 [Cpd 316, N-(4-(hydroxymethyl)tetrahydro-2H-pyran-4-yl)-2-methyl-5-((2-phenylpropan-2-yl)oxy)benzofuran-3-carboxamide] | < 1000
11 | Cc1oc2ccc(OCc3ccccc3)cc2c1C(=O)NC1CNCC1F (racemic) [Cpd 094, rac-5-(benzyloxy)-N-(cis-4-fluoropyrrolidin-3-yl)-2-methylbenzofuran-3-carboxamide] | < 1000
12 | Cc1oc2ccc(OCc3ccccc3F)cc2c1C(=O)NC1CCN(CCO)C1=O (single isomer, unassigned) [Cpd 311-En 1, 5-((2-Fluorobenzyl)oxy)-N-(1-(2-hydroxyethyl)-2-oxopyrrolidin-3-yl)-2-methylbenzofuran-3-carboxamide] | < 1000
13 | Cc1oc2ccc(OCc3ccccc3)cc2c1C(=O)NC[C@H]1CCCO1 [Cpd 089, (R)-5-(benzyloxy)-2-methyl-N-((tetrahydrofuran-2-yl)methyl)benzofuran-3-carboxamide] | 1000 to 20000
14 | Cc1oc2ccc(COc3ccccc3F)cc2c1C(=O)NC(C)(C)CO [Cpd 319, 5-((2-fluorophenoxy)methyl)-N-(1-hydroxy-2-methylpropan-2-yl)-2-methylbenzofuran-3-carboxamide] | 1000 to 20000
15 | CNC(=O)[C@@H]1C[C@@H](NC(=O)c2c(C)oc3ccc(OCc4ccccc4)cc23)CN1 [Cpd 188, (2S,4R)-4-(5-(benzyloxy)-2-methylbenzofuran-3-carboxamido)-N-methylpyrrolidine-2-carboxamide] | 1000 to 20000
16 | Cc1oc2ccc(OC(C)c3ccccc3)cc2c1C(=O)N[C@@H](CO)C(N)=O (single isomer, unassigned) [Cpd 336-Dia 1] | < 1000
17 | Cc1oc2ccc(OCc3ccccc3F)cc2c1C(=O)NC1(CO)COC1 [Cpd 310, 5-((2-fluorobenzyl)oxy)-N-(3-(hydroxymethyl)oxetan-3-yl)-2-methylbenzofuran-3-carboxamide] | < 1000
18 | Cc1oc2ccc(OCc3ccccc3)cc2c1C(=O)NC1CN2CCC1CC2 (stereo not shown) [Cpd 142, 5-(benzyloxy)-2-methyl-N-(quinuclidin-3-yl)benzofuran-3-carboxamide] | < 1000
19 | Cc1oc2ccc(OCc3ccccc3)cc2c1C(=O)N[C@H]1CC2CC[C@H](C1)N2C(=O)OC(C)(C)C [Cpd 258, tert-butyl (1R,3s,5S)-3-(5-(benzyloxy)-2-methylbenzofuran-3-carboxamido)-8-azabicyclo-[3.2.1]octane-8-carboxylate] | < 1000
20 | Cc1oc2ccc(OCc3ccccc3F)cc2c1C(=O)NC1(C(N)=O)COC1 [Cpd 309, N-(3-carbamoyloxetan-3-yl)-5-((2-fluorobenzyl)oxy)-2-methylbenzofuran-3-carboxamide] | < 1000
21 | Cc1ccc(COc2ccc3oc(C)c(C(=O)NS(=O)(=O)C4CC4)c3c2)cc1 [Cpd 169, N-(cyclopropylsulfonyl)-2-methyl-5-((4-methylbenzyl)oxy)benzofuran-3-carboxamide] | 1000 to 20000
22 | Cc1oc2ccc(OCc3ccccc3)cc2c1C(=O)NCc1ccncc1 [Cpd 101, 5-(benzyloxy)-2-methyl-N-(pyridin-4-ylmethyl)benzofuran-3-carboxamide] | 1000 to 20000
23 | Cc1oc2c(C#N)cc(OCc3ccccc3)cc2c1C(=O)NC1CNCC1(F)F (single isomer, unassigned) [Cpd 305-En 1, 5-(benzyloxy)-7-cyano-N-(4,4-difluoropyrrolidin-3-yl)-2-methylbenzofuran-3-carboxamide] | > 20000
24 | Cc1oc2ccc(OCc3ccccc3)cc2c1C(=O)NC1CCNC1=O (stereo not shown) [Cpd 071, 5-(benzyloxy)-2-methyl-N-(2-oxopyrrolidin-3-yl)benzofuran-3-carboxamide] | < 1000

The remaining lines, values ahead:

Row | IC50 [nM] | Compound
25 | 1000 to 20000 | Cc1oc2ccc(OCc3ccccc3)cc2c1C(=O)NCC1CCOCC1 [Cpd 122, 5-(benzyloxy)-2-methyl-N-((tetrahydro-2H-pyran-4-yl)methyl)benzofuran-3-carboxamide]
26 | > 20000 | CN1CCC(NC(=O)c2c(C3CCCC3)oc3ccc(OCc4ccccc4)cc23)CC1 [Cpd 221, 5-(benzyloxy)-2-cyclopentyl-N-(1-methylpiperidin-4-yl)benzofuran-3-carboxamide]
27 | < 1000 | Cc1oc2ccc(OCc3ccccc3)cc2c1C(=O)NC1CCN(c2ncccn2)CC1 [Cpd 230, 5-(benzyloxy)-2-methyl-N-(1-(pyrimidin-2-yl)piperidin-4-yl)benzofuran-3-carboxamide]
28 | > 20000 | Cc1oc2ccc(OCc3ccc(CN)cc3)cc2c1C(=O)NC1CCN(C)CC1 [Cpd 190, 5-((4-(aminomethyl)benzyl)oxy)-2-methyl-N-(1-methylpiperidin-4-yl)benzofuran-3-carboxamide]
29 | > 20000 | Cc1oc2ccc(OCc3cccc(F)c3)cc2c1C(N)=O [Cpd 037, 5-((3-fluorobenzyl)oxy)-2-methylbenzofuran-3-carboxamide]
30 | 1000 to 20000 | CCc1oc2ccc(OCc3cccc(F)c3)cc2c1C(=O)NC1CCN(C)CC1 [Cpd 194, 2-ethyl-5-((3-fluorobenzyl)oxy)-N-(1-methylpiperidin-4-yl)benzofuran-3-carboxamide]
31 | < 1000 | Cc1oc2ccc(OCc3ccccc3)cc2c1C(=O)N[C@@H]1CN[C@H](CO)C1 [Cpd 126, 5-(benzyloxy)-N-((3S,5S)-5-(hydroxymethyl)pyrrolidin-3-yl)-2-methylbenzofuran-3-carboxamide]
32 | 1000 to 20000 | Cc1oc2ccc(OCc3ccccc3)cc2c1C(=O)NCCN1CCOCC1 [Cpd 165, 5-(benzyloxy)-2-methyl-N-(2-morpholinoethyl)benzofuran-3-carboxamide]
33 | > 20000 | Cc1oc2ccc(OCc3cccc(CN)c3)cc2c1C(=O)NC1CCNC1=O (stereo not shown) [Cpd 157, 5-((3-(aminomethyl)benzyl)oxy)-2-methyl-N-(2-oxopyrrolidin-3-yl)benzofuran-3-carboxamide]
34 | < 1000 | Cc1oc2ccc(OCc3ccccc3)cc2c1C(=O)NC1CCCNCC1 (stereo not shown) [Cpd 119, N-(azepan-4-yl)-5-(benzyloxy)-2-methylbenzofuran-3-carboxamide]
35 | < 1000 | Cc1oc2ccc(OCc3ccccc3)cc2c1C(=O)NC1CCS(=O)(=O)CC1 [Cpd 198, 5-(benzyloxy)-N-(1,1-dioxidotetrahydro-2H-thiopyran-4-yl)-2-methylbenzofuran-3-carboxamide]
36 | 1000 to 20000 | Cc1oc2ccc(OCc3cccc(C(F)(F)F)c3)cc2c1C(=O)O [Cpd 025, 2-methyl-5-((3-(trifluoromethyl)benzyl)oxy)benzofuran-3-carboxylic acid]
37 | 1000 to 20000 | Cc1oc2ccc(OCc3ccccc3COC3CCCCO3)cc2c1C(=O)NC1CCN(C)CC1 (stereo not shown) [Cpd 260, 2-methyl-N-(1-methylpiperidin-4-yl)-5-((2-(((tetrahydro-2H-pyran-2-yl)oxy)methyl)benzyl)oxy)benzofuran-3-carboxamide]
